Test results from ChEMBL document CHEMBL1141905, “3,4-disubstituted azetidinones as selective inhibitors of the cysteine protease cathepsin K. Exploring P3 elements for potency and selectivity” (Bioorg Med Chem Lett, 2005).

Key:
[1] = target: Cathepsin B (Homo sapiens) (UniProt P07858); experiment: Apparent inhibitory constant against human cathepsin B
[2] = target: Cathepsin S (Homo sapiens) (UniProt P25774); experiment: Apparent inhibitory constant against human cathepsin S
[3] = target: T1, Cathepsin K (Oryctolagus cuniculus) (UniProt P43236); experiment: Apparent inhibitory constant against rabbit cathepsin K
T1 sequence (whole entry): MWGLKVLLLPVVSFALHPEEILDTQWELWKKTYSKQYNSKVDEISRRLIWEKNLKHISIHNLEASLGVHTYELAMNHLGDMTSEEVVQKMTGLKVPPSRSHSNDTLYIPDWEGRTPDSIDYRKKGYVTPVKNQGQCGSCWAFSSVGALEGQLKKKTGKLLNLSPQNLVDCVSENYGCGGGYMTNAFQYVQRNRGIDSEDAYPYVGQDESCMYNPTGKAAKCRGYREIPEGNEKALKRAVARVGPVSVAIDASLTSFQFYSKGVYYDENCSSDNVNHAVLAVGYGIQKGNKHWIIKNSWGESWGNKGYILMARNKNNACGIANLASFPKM

[4] = target: Procathepsin L (Homo sapiens) (UniProt P07711);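 also: apparent inhibition constant, determined on the human enzyme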
Chain of Procathepsin L (Homo sapiens) (P07711 114-333 limits assumed): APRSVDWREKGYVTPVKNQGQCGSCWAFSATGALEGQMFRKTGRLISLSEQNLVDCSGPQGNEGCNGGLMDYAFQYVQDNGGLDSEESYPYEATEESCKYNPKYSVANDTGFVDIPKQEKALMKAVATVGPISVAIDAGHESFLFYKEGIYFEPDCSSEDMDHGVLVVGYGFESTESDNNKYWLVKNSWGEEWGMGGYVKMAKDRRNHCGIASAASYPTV

[5] = Beta half life period; assay type: ADME
[6] = Alpha half life period; assay type: ADME
[7] = Clearance following intravenous administration evaluated as high; assay type: ADME, organism-based; details: in vivo
[8] = Mean residence time by intravenous administration; assay type: ADME, organism-based; details: in vivo
[9] = Volume of distribution following intravenous administration evaluated as moderate; assay type: ADME, organism-based; details: in vivo

Chain of Cathepsin S (Homo sapiens) (P25774 115-331 limits assumed): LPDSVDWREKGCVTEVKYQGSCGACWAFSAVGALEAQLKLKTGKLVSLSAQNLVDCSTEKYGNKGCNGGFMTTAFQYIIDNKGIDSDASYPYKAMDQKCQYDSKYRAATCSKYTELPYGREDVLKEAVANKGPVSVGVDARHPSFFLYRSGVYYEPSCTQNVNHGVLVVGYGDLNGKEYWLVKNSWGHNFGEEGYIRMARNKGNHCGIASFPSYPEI

SMILES	Ki'' [1] [nM]	Ki'' [2] [nM]	Ki'' [3] [nM]	Ki'' [4] [nM]	half-life [5] [min]	half-life [6] [min]	clearance [7] [mL/min/kg]	MRT [8] [min]	Vd [9] [L/kg]
CC(=O)O[C@@H]1NC(=O)[C@H]1NC(=O)C1(NC(=O)c2ccc(Cl)cc2)CCCCC1	2100	3400	92	8200					
CC(=O)O[C@@H]1NC(=O)[C@H]1NC(=O)C1(NC(=O)OCc2ccccc2)CCCCC1	4300	950	57	6800					
CC(=O)O[C@@H]1NC(=O)[C@H]1NC(=O)C1(NC(=O)c2ccc(-c3csc(NN4CCN(C)CC4)n3)cc2)CCCCC1	91	8800	0.25	2100					
CC(=O)O[C@@H]1NC(=O)[C@H]1NC(=O)C1(NC(=O)c2ccc(-c3csc(N(C)C)n3)cc2)CCCCC1	1400	7700	2.6	390					
CC(=O)O[C@@H]1NC(=O)[C@H]1NC(=O)C1(NC(=O)c2ccc(N3CCOCC3)cc2)CCCCC1	980	14000	5	19000					
CN(C)c1nc(-c2ccc(C(=O)NC3(C(=O)N[C@@H]4C(=O)N[C@H]4Oc4ccccc4)CCCCC3)cc2)cs1	25000	10000	18	89					
CC(=O)O[C@@H]1NC(=O)[C@H]1NC(=O)C1(NC(=O)c2ccc(N(C)C)cc2)CCCCC1	530	2800	3.1	2100					
CN1CCN(c2nc(-c3ccc(C(=O)NC4(C(=O)N[C@@H]5C(=O)N[C@@H]5Oc5ccccc5)CCCCC4)cc3)cs2)CC1					21	2	92	17	1.6
CSc1ccc(C(=O)NC2(C(=O)N[C@@H]3C(=O)N[C@H]3OC(C)=O)CCCCC2)cc1	1200	3500	12	6400					
CN1CCN(Nc2nc(-c3ccc(C(=O)NC4(C(=O)N[C@@H]5C(=O)N[C@H]5Oc5ccccc5)CCCCC4)cc3)cs2)CC1	6000	140000	0.26	310					
CC(=O)O[C@@H]1NC(=O)[C@H]1NC(=O)C1(NC(=O)c2ccc(N3CCN(C)CC3)cc2)CCCCC1	490	8800	1.1	1400					
CN1CCN(Nc2nc(-c3ccc(C(=O)NC4(C(=O)N[C@@H]5C(=O)N[C@@H]5Oc5ccccc5)CCCCC4)cc3)cs2)CC1	5200	150000	8.2	8.2					
CC(=O)O[C@@H]1NC(=O)[C@H]1NC(=O)C1(NC(=O)c2ccc(-c3csc(N4CCN(C)CC4)n3)cc2)CCCCC1	940	8500	1.1	3300					
CC(=O)O[C@@H]1NC(=O)[C@H]1NC(=O)C1(NC(=O)c2ccc(-c3csc(CN4CCOCC4)n3)cc2)CCCCC1	1700	12000	7.5	11000					
